Data taken from patent US20250368666A1, “INDAZOLE COMPOUNDS” (TYRA BIOSCIENCES, INC., priority 2022, published 2025).
Like-named read-outs stand apart in the source and are kept apart here.

Assays:
FGFR1 = target: T1, FGFR1 (Homo sapiens, UniProt P11362); experiment: Kinase binding assay (kinase-tagged T7 phage, affinity beads, qPCR), Kd; settings: read-out: FGFR1 (Kd nM)
T1 construct: made in house; host or cells: E. coli (BL21-derived), T7 phage
Protocol: (§1) Kinase-tagged T7 phage strains were prepared in an E. coli host derived from the BL21 strain. E. coli were grown to log-phase and infected with T7 phage and incubated with shaking at 32° C. until lysis. The lysates were centrifuged and filtered to remove cell debris. Streptavidin-coated magnetic beads were treated with biotinylated small molecule ligands for 30 minutes at room temperature to generate affinity resins for kinase assays. The liganded beads were blocked with excess biotin and washed with blocking buffer SeaBlock (Pierce), 1% BSA, 0.05% Tween 20, 1 mM DTT to remove unbound ligand and to reduce non-specific binding.
(§2) Test compounds were prepared as 111× stocks in 100% DMSO. Kds were determined using an 11-point 3-fold compound dilution series with three DMSO control points. […] The compounds were then diluted directly into the assays such that the final concentration of DMSO was 0.9%. All reactions performed in polypropylene 384-well plate. Each was a final volume of 0.02 ml. […] The kinase concentration in the eluates was measured by qPCR.
(§3) Binding constants were calculated with a standard dose-response curve using the Hill equation: […]
(§4) The Hill Slope was set to −1. Curves were fitted using a non-linear least square fit with the Levenberg-Marquardt algorithm.

FGFR3 = target: T2, FGFR3 (Homo sapiens, UniProt P22607); experiment: as above; settings: read-out: FGFR3 (Kd nM)
T2 construct: made in house; host or cells: E. coli (BL21-derived), T7 phage
T2 sequence (P22607 23-806): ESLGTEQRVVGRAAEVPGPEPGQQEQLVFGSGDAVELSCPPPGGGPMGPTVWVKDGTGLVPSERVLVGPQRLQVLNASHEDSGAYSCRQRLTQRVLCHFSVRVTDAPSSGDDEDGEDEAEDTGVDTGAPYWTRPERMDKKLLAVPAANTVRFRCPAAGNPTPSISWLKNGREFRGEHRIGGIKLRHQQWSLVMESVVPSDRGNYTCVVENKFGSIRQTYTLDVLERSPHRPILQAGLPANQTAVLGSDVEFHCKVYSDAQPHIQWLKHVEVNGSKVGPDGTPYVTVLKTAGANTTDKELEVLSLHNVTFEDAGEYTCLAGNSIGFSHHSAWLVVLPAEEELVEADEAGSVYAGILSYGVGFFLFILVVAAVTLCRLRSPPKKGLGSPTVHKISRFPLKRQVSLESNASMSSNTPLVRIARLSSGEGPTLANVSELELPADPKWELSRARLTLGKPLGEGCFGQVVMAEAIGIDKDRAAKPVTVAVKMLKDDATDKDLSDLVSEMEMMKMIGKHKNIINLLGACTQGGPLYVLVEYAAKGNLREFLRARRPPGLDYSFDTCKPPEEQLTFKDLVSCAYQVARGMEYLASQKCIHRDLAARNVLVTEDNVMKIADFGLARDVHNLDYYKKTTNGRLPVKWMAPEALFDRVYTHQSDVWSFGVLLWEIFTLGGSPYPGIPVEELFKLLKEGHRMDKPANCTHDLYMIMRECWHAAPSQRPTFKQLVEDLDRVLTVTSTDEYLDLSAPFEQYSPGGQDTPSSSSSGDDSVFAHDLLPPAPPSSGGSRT
Protocol: as §1, §2, §3, §4

[1] = kinase binding assay, 11-point 3-fold dilution series

T1 sequence (P11362 22-822): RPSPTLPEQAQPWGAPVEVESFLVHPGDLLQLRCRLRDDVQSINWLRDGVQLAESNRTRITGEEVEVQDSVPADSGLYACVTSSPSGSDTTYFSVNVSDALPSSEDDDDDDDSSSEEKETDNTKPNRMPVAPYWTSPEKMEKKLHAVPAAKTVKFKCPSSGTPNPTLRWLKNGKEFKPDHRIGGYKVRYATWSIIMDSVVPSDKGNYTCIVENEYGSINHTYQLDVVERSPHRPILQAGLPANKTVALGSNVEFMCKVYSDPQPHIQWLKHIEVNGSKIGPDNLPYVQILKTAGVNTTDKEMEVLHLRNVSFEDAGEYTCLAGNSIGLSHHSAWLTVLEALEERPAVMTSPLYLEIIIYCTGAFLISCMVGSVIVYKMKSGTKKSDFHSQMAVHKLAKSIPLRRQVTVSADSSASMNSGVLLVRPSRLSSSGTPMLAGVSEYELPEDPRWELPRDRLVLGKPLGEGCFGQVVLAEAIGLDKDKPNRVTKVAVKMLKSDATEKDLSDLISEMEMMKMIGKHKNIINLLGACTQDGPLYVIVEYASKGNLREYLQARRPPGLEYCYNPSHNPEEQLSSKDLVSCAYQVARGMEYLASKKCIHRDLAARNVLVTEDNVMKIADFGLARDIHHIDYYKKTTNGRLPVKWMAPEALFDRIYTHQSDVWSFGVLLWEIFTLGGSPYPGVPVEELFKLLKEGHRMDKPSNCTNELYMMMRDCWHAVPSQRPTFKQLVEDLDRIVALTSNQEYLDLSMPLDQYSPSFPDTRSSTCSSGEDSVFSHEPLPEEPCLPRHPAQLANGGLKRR

Row | Structure (SMILES) | Kd (FGFR1; [1]) | Kd (FGFR3; [1]) | Kd (FGFR1) | Kd (FGFR3)
1 | C[C@@H](Oc1ccc2[nH]nc(-c3ccc(N4CCC(N)(CCS(C)(=O)=O)CC4)nn3)c2c1)c1c(Cl)cncc1Cl [Example 398, (R)-1-(6-(5-(1-(3,5-dichloropyridin-4-yl)ethoxy)-1H-indazol-3-yl)pyridazin-3-yl)-4-(2-(methylsulfonyl)ethyl) piperidin-4-amine] | 1 to 50 nM | 1 to 50 nM |  | 
2 | C[C@@H](Oc1ccc2[nH]nc(-c3ccc(N4CC(C)(NCCC#N)C4)nn3)c2c1)c1c(Cl)cncc1Cl [Example 313, (R)-3-((1-(6-(5-(1-(3,5-dichloropyridin-4-yl)ethoxy)-1H-indazol-3-yl)pyridazin-3-yl)-3-methylazetidin-3-yl)amino)propane-nitrile] |  |  | 1 to 50 nM | 1 to 50 nM
3 | CC(C)OC(=O)C1(N)CN(c2ncc(-c3n[nH]c4ccc(O[C@H](C)c5c(Cl)cncc5Cl)cc34)cc2F)C1 [Example 287, (R)-isopropyl 3-amino-1-(5-(5-(1-(3,5-dichloropyridin-4-yl)ethoxy)-1H-indazol-3-yl)-3-fluoropyridin-2-yl)azetidine-3-carboxylate] |  |  | 1 to 50 nM | 1 to 50 nM
4 | CC(C)N(C)C1(CC#N)CN(c2ncc(-c3n[nH]c4ccc(O[C@H](C)c5c(Cl)cncc5Cl)cc34)cc2F)C1 [Example 257, (R)-2-(1-(5-(5-(1-(3,5-dichloropyridin-4-yl)ethoxy)-1H-indazol-3-yl)-3-fluoropyridin-2-yl)-3-(isopropyl(methyl)a-mino)azetidin-3-yl)acetonitrile] |  |  | 50 to 300 nM | 1 to 50 nM
5 | C[C@@H](Oc1ccc2[nH]nc(-c3cnc(N4CCC(N)(CS(C)(=O)=O)CC4)c(F)c3)c2c1)c1c(Cl)cncc1Cl [Example 375, (R)-1-(5-(5-(1-(3,5-dichloropyridin-4-yl)ethoxy)-1H-indazol-3-yl)-3-fluoropyridin-2-yl)-4-((methylsulfonyl)methyl)piperidin-4-amine] |  |  | 1 to 50 nM | 1 to 50 nM
6 | COc1cc2[nH]nc(-c3ccc(N4CCC(C)(N)CC4)nc3)c2cc1O[C@H](C)c1c(Cl)cncc1Cl [Example 382, (R)-1-(5-(5-(1-(3,5-dichloropyridin-4-yl)ethoxy)-6-methoxy-1H-indazol-3-yl)pyridin-2-yl)-4-methylpiperidin-4-amine] | 1 to 50 nM | 1 to 50 nM |  | 
7 | C[C@@H](Oc1ccc2[nH]nc(-c3cnc(N4CC(N)(CC(F)F)C4)c(F)c3)c2c1)c1c(Cl)cncc1Cl [Example 394, (R)-1-(5-(5-(1-(3,5-dichloropyridin-4-yl)ethoxy)-1H-indazol-3-yl)-3-fluoropyridin-2-yl)-3-(2,2-difluoro-ethyl)azetidin-3-amine] | 1 to 50 nM | 1 to 50 nM |  | 
8 | C[C@@H](Oc1ccc2[nH]nc(-c3ccc(N4CC(N)(CC(F)F)C4)nn3)c2c1)c1c(Cl)cncc1Cl [Example 397, (R)-1-(6-(5-(1-(3,5-dichloropyridin-4-yl)ethoxy)-1H-indazol-3-yl)pyridazin-3-yl)-3-(2,2-difluoro-ethyl)azetidin-3-amine] | 1 to 50 nM | 1 to 50 nM |  | 
9 | C[C@@H](Oc1ccc2[nH]nc(-c3cnc(N4CC[C@@](C)(N)C4)c(F)c3)c2c1)c1c(Cl)cncc1Cl [Example 400, (R)-1-(5-(5-((R)-1-(3,5-dichloropyridin-4-yl)ethoxy)-1H-indazol-3-yl)-3-fluoropyridin-2-yl)-3-methylpyrrolidin-3-amine] | 1 to 50 nM | 1 to 50 nM |  | 
10 | C[C@@H](Oc1ccc2[nH]nc(-c3ccc(N4CCC(N)(c5ccnn5C)C4)nn3)c2c1)c1c(Cl)cncc1Cl (stereo in doubt) [Example 416, (R)-1-(6-(5-((R)-1-(3,5-dichloropyridin-4-yl)ethoxy)-1H-indazol-3-yl)pyridazin-3-yl)-3-(1-methyl-1H-pyrazol-5-yl)pyrrolidin-3-amine] | 1 to 50 nM | 1 to 50 nM |  | 
11 | C[C@@H](Oc1ccc2[nH]nc(-c3cnc(N4CCC(C)(N)CC4)c(F)c3)c2c1)c1c(Cl)cncc1Cl [Example 401] | 1 to 50 nM | 1 to 50 nM |  | 
12 | CCCC1(N)CN(c2ncc(-c3n[nH]c4ccc(O[C@H](C)c5c(Cl)cncc5Cl)cc34)cc2F)C1 [Example 265, (R)-1-(5-(5-(1-(3,5-dichloropyridin-4-yl)ethoxy)-1H-indazol-3-yl)-3-fluoropyridin-2-yl)-3-propylazetidin-3-amine] |  |  | 1 to 50 nM | 1 to 50 nM

Results, then the compound that gave them:

Row | Kd (FGFR1; [1]) | Kd (FGFR3; [1]) | Kd (FGFR1) | Kd (FGFR3) | Structure (SMILES)
13 | 1 to 50 nM | 1 to 50 nM |  |  | C[C@@H](O)CC1(N)CN(c2ncc(-c3n[nH]c4ccc(O[C@H](C)c5c(Cl)cncc5Cl)cc34)cc2F)C1 [Example 385, (R)-1-(3-amino-1-(5-(5-((R)-1-(3,5-dichloropyridin-4-yl)ethoxy)-1H-indazol-3-yl)-3-fluoropyridin-2-yl)azetidin-3-yl)propan-2-ol]
14 |  |  | 1 to 50 nM | 1 to 50 nM | COCC1(N)CN(c2ncc(-c3n[nH]c4ccc(O[C@H](C)c5c(Cl)cncc5Cl)cc34)cc2F)C1 [Example 371, 1-[5-[5-[(1R)-1-(3,5-dichloro-4-pyridyl)ethoxy]-1H-indazol-3-yl]-3-fluoro-2-pyridyl]-3-(methoxy-methyl)aze-tidin-3-amine]
15 |  |  | 1 to 50 nM | 1 to 50 nM | C[C@@H](Oc1ccc2[nH]nc(-c3ccc(N4CC(N)(CC(C)(C)O)C4)nn3)c2c1)c1c(Cl)cncc1Cl [Example 275, (R)-1-(3-amino-1-(6-(5-(1-(3,5-dichloropyridin-4-yl)ethoxy)-1H-indazol-3-yl)pyridazin-3-yl)azetidin-3-yl)-2-methylpropan-2-ol]
16 |  |  | 1 to 50 nM | 1 to 50 nM | COc1cc2[nH]nc(-c3cnc(N4CC[C@@](C)(N)C4)c(F)c3)c2cc1O[C@H](C)c1c(Cl)cncc1Cl [Example 315, (R)-1-(5-(5-((R)-1-(3,5-dichloropyridin-4-yl)ethoxy)-6-methoxy-1H-indazol-3-yl)-3-fluoropyridin-2-yl)-3-methylpyrrolidin-3-amine]
17 | 1 to 50 nM | 1 to 50 nM |  |  | C[C@@H](Oc1ccc2[nH]nc(-c3cnc(N4CC[C@](N)(Cc5ccn(C)n5)C4)c(F)c3)c2c1)c1c(Cl)cncc1Cl [Example 428, (S)-1-(5-(5-((R)-1-(3,5-dichloropyridin-4-yl)ethoxy)-1H-indazol-3-yl)-3-fluoropyridin-2-yl)-3-((1-methyl-1H-pyrazol-3-yl)methyl)pyrrolidin-3-amine]
18 | 1 to 50 nM | 1 to 50 nM |  |  | COc1cc2[nH]nc(-c3cnc(N4CCC(C)(N)CC4)c(F)c3)c2cc1O[C@H](C)c1c(Cl)cncc1Cl [Example 383, (R)-1-(5-(5-(1-(3,5-dichloropyridin-4-yl)ethoxy)-6-methoxy-1H-indazol-3-yl)-3-fluoropyridin-2-yl)-4-methylpiperidin-4-amine]
19 |  |  | 1 to 50 nM | 1 to 50 nM | C[C@@H](Oc1ccc2[nH]nc(-c3ccc(N4CC(N)(CCO)C4)nc3)c2c1)c1c(Cl)cncc1Cl [Example 279, (R)-2-(3-amino-1-(5-(5-(1-(3,5-dichloropyridin-4-yl)ethoxy)-1H-indazol-3-yl)pyridin-2-yl)azetidin-3-yl)ethanol]
20 | 1 to 50 nM | 1 to 50 nM |  |  | C[C@@H](Oc1ccc2[nH]nc(-c3cnc(N4CC[C@](N)(c5ccnn5C)C4)c(F)c3)c2c1)c1c(Cl)cncc1Cl [Example 404, (R)-1-(5-(5-((R)-1-(3,5-dichloropyridin-4-yl)ethoxy)-1H-indazol-3-yl)-3-fluoropyridin-2-yl)-3-(1-methyl-1H-pyrazol-5-yl)pyrrolidin-3-amine]
21 |  |  | 1 to 50 nM | 1 to 50 nM | C[C@@H](Oc1ccc2[nH]nc(-c3cnc(N4CC(N)(CCCO)C4)c(F)c3)c2c1)c1c(Cl)cncc1Cl [Example 307, (R)-3-(3-amino-1-(5-(5-(1-(3,5-dichloropyridin-4-yl)ethoxy)-1H-indazol-3-yl)-3-fluoropyridin-2-yl)azetidin-3-yl)propan-1-ol]
22 |  |  | 1 to 50 nM | 1 to 50 nM | C[C@@H](Oc1ccc2[nH]nc(-c3ccc(N4CC(N)(CC5CCCO5)C4)nn3)c2c1)c1c(Cl)cncc1Cl (stereo partly drawn) [Example 305, 1-(6-(5-((R)-1-(3,5-dichloropyridin-4-yl)ethoxy)-1H-indazol-3-yl)pyridazin-3-yl)-3-((tetrahydrofuran-2-yl)methyl)azetidin-3-amine]
23 |  |  | 1 to 50 nM | 1 to 50 nM | C[C@@H](Oc1ccc2[nH]nc(-c3ccc(N4CC(C)(NCC(F)F)C4)nn3)c2c1)c1c(Cl)cncc1Cl [Example 312, (R)-1-(6-(5-(1-(3,5-dichloropyridin-4-yl)ethoxy)-1H-indazol-3-yl)pyridazin-3-yl)-N-(2,2-difluoroethyl)-3-methylazetidin-3-amine]
24 |  |  | 1 to 50 nM | 1 to 50 nM | C[C@@H](Oc1ccc2[nH]nc(-c3cnc(N4CC(C)(NCCN5CCCC5)C4)c(F)c3)c2c1)c1c(Cl)cncc1Cl [Example 268, (R)-1-(5-(5-(1-(3,5-dichloropyridin-4-yl)ethoxy)-1H-indazol-3-yl)-3-fluoropyridin-2-yl)-3-methyl-N-(2-(pyrrolidin-1-yl)ethyl)azetidin-3-amine]
25 | 1 to 50 nM | 1 to 50 nM |  |  | C[C@@H](Oc1ccc2[nH]nc(-c3cnc(N4CCC(N)(CCS(C)(=O)=O)CC4)c(F)c3)c2c1)c1c(Cl)cncc1Cl [Example 395, (R)-1-(5-(5-(1-(3,5-dichloropyridin-4-yl)ethoxy)-1H-indazol-3-yl)-3-fluoropyridin-2-yl)-4-(2-(methylsulfonyl)ethyl) piperidin-4-amine]
